40 compounds from patent US9902696B2, “1,4-substituted piperidine derivatives” (Cephalon, Inc., priority 2015, dated 2018) can be followed below.

Counter-ions that a name gives are not always drawn.

T1 sequence (P49327 whole entry): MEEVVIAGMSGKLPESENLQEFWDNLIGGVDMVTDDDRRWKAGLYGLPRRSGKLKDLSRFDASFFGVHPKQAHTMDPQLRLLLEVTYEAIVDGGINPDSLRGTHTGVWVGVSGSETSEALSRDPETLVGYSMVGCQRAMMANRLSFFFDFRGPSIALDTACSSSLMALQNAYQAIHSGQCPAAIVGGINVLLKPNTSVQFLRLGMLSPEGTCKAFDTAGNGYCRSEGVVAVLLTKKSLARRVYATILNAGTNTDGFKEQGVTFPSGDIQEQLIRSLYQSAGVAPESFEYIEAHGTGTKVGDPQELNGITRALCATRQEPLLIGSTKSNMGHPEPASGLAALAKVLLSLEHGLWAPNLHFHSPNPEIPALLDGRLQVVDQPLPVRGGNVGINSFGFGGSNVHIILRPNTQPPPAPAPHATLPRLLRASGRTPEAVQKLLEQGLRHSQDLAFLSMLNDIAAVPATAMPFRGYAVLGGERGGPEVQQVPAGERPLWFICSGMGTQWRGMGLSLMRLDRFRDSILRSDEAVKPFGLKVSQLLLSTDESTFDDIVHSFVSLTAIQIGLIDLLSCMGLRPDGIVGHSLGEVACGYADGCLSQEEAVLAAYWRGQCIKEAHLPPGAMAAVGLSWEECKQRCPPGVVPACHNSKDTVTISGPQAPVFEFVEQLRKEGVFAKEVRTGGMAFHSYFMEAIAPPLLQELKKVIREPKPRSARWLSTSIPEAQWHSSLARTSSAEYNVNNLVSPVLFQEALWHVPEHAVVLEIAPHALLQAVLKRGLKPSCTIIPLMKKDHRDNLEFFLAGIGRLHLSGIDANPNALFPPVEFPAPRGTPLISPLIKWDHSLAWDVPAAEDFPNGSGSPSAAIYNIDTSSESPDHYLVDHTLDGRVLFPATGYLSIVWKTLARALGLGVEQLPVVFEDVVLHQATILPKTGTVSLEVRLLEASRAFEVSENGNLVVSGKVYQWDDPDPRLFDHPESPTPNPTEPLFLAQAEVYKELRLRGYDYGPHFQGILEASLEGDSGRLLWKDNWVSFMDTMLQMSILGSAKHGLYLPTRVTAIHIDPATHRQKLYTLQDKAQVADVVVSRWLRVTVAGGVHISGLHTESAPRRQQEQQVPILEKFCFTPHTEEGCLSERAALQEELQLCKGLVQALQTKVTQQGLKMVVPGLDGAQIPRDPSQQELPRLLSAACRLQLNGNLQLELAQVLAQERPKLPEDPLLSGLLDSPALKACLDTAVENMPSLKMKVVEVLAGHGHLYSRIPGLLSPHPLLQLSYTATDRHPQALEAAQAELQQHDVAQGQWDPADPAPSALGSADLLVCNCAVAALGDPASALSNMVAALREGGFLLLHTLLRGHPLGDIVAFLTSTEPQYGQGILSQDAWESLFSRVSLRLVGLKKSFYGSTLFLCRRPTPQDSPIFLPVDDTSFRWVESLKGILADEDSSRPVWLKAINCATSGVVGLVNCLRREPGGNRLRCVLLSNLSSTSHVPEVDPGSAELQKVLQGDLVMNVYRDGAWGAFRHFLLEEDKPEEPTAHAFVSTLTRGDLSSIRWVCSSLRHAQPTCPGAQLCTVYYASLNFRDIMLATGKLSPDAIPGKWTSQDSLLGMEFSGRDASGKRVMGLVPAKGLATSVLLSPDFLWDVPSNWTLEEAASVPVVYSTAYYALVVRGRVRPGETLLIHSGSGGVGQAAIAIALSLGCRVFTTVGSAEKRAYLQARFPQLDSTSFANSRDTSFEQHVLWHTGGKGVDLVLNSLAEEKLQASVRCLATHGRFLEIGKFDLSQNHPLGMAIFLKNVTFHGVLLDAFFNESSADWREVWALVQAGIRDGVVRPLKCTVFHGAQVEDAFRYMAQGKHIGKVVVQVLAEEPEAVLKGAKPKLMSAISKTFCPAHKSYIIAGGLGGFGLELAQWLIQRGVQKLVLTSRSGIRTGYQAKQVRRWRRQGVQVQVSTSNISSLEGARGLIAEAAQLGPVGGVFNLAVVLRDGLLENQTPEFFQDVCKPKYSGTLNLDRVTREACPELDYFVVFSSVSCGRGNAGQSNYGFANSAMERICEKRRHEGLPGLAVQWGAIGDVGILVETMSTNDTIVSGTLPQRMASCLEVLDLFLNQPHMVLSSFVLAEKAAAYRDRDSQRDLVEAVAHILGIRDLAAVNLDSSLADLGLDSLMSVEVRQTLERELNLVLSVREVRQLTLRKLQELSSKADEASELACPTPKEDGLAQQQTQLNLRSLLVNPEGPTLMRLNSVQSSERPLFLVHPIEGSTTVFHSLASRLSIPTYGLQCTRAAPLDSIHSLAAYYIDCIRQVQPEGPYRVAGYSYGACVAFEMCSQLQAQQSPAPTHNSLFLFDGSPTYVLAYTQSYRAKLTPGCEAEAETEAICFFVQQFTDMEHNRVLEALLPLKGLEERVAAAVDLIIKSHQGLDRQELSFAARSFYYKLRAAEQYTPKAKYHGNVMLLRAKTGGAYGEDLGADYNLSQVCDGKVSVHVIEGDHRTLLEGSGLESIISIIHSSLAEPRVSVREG

The test has as its target T1, recombinant human baculovirus-expressed GST-tagged FASN (Homo sapiens, UniProt P49327).
T1 construct: GST
Kind of test: FASN enzyme activity assay, fluorescence-based detection of CoA with CPM. It counts as biochemical. The settings on record: 5 nM FASN, 150 μM NADPH, 10 μM acetyl-CoA, 25 μM malonyl-CoA, 90 minutes incubation; read-out: IC50 data for Compounds of Formulae I-V/V(a): Activity. In short, it runs like this: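 Human GST-tagged FASN, baculovirus-expressed (5 nM), in 50 mM HEPES pH 7.5 with 150 μM NADPH, 10 μM acetyl-CoA, 25 μM malonyl-CoA, 0.5% DMSO; malonyl-CoA-started, 90 min. Released CoA detected with CPM (50 μM dilution), 30 min, fluorescence ex 390/em 530. IC50 from variable-slope sigmoidal fit of % inhibition versus log concentration.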
Consider `CONC(=O)N1CCC(Oc2ccc(-c3cnc4ccccc4c3C)cc2)CC1` [Example 82, 4-[4-(4-Methylquinolin-3-yl)-phenoxy]-piperidine-1-carboxylic acid methoxyamide], for which the IC50 was 1 to 99 nM.

With `CON(C)C(=O)N1CCC(Oc2ccc(-c3cnc4ccccc4c3C)cc2)CC1` [Example 83, 4-[4-(4-Methylquinolin-3-yl)-phenoxy]-piperidine-1-carboxylic acid methoxymethyl-amide], the IC50 lay within 1 to 99 nM.

In the case of `CCNC(=O)N1CCC(Oc2ccc(-c3cnc4ccccc4c3C)cc2)CC1` [Example 84, 4-[4-(4-Methylquinolin-3-yl)-phenoxy]-piperidine-1-carboxylic acid ethylamide], the IC50 lay within 1 to 99 nM.

For `CNC(=O)N1CCC(Oc2ccc(-c3ccc4cccnc4c3OC)cc2)CC1` [Example 85, 4-[4-(8-Methoxyquinolin-7-yl)-phenoxy]-piperidine-1-carboxylic acid methylamide], the IC50 was 100 to 999 nM.

Regarding `CCNC(=O)N1CCC(Oc2ccc(-c3ccc4cccnc4c3OC)cc2)CC1` [Example 86, 4-[4-(8-Methoxyquinolin-7-yl)-phenoxy]-piperidine-1-carboxylic acid ethylamide], the IC50 was 1 to 99 nM.

Regarding `Cc1c(-c2ccc(OC3CCN(C(=O)NO)CC3)cc2)cnc2ccccc12` [Example 87, 4-[4-(4-Methylquinolin-3-yl)-phenoxy]-piperidine-1-carboxylic acid hydroxyamide], the IC50 lay within 1000 to 10000 nM.

As for `CCNC(=O)N1CCC(Oc2ccc(-c3ccc4cccnc4c3C)cc2)CC1` [Example 88, N-ethyl-4-[4-(8-methyl-7-quinolyl)phenoxy]piperidine-1-carboxamide], the IC50 lay within 1 to 99 nM.

For the compound `Cc1c(-c2ccc(OC3CCN(C(=O)N(C)C)CC3)cc2)ccc2cccnc12` [Example 89, N,N-dimethyl-4-[4-(8-methyl-7-quinolyl)phenoxy]piperidine-1-carboxamide], the IC50 was 1 to 99 nM.

As to `CCOC(=O)N1CCC(Oc2ccc(-c3ccc4cccnc4c3C)cc2)CC1` [Example 90, Ethyl 4-[4-(8-methyl-7-quinolyl)phenoxy]piperidine-1-carboxylate], the IC50 fell in the range of 100 to 999 nM.

Regarding `CONC(=O)N1CCC(Oc2ccc(-c3ccc4cccnc4c3C)cc2)CC1` [Example 91, N-methoxy-4-[4-(8-methyl-7-quinolyl)phenoxy]piperidine-1-carboxamide], the IC50 was 1 to 99 nM.

As to `Cc1c(-c2ccc(OC3CCN(C(=O)NC(C)C)CC3)cc2)ccc2cccnc12` [Example 92, N-Isopropyl-4-[4-(8-methyl-7-quinolyl)phenoxy]piperidine-1-carboxamide], the IC50 lay within 1000 to 10000 nM.

In the case of `CCONC(=O)N1CCC(Oc2ccc(-c3ccc4cccnc4c3C)cc2)CC1` [Example 93, N-ethoxy-4-[4-(8-methyl-7-quinolyl)phenoxy]piperidine-1-carboxamide], the IC50 is 1 to 99 nM.

Turning to `Cc1c(-c2ccc(OC3CCN(C(=O)N4CCCC4)CC3)cc2)ccc2cccnc12` [Example 94, [4-[4-(8-methyl-7-quinolyl)phenoxy]-1-piperidyl]-pyrrolidin-1-yl-methanone], the IC50 is 1 to 99 nM.

As to `CNC(=O)N1CCC(Oc2ccc(-c3ccc4cccnc4c3C)cc2)CC1` [Example 95, N-methyl-4-[4-(8-methyl-7-quinolyl)phenoxy]piperidine-1-carboxamide], the IC50 was 1 to 99 nM.

On to `CCCNC(=O)N1CCC(Oc2ccc(-c3ccc4cccnc4c3C)cc2)CC1` [Example 96, 4-[4-(8-methyl-7-quinolyl)phenoxy]-N-propyl-piperidine-1-carboxamide], for which the IC50 lay within 1 to 99 nM.

For `Cc1c(-c2ccc(OC3CCN(C(N)=O)CC3)cc2)ccc2cccnc12` [Example 97, 4-[4-(8-methyl-7-quinolyl)phenoxy]piperidine-1-carboxamide], the IC50 lay in the range of 100 to 999 nM.

For `Cc1c(-c2ccc(OC3CCN(C(=O)N4CCCCC4)CC3)cc2)ccc2cccnc12` [Example 98, [4-[4-(8-methyl-7-quinolyl)phenoxy]-1-piperidyl]-(1-piperidyl)methanone], the IC50 is 1 to 99 nM.

As for `Cc1c(-c2ccc(OC3CCN(C(=O)N4CCOCC4)CC3)cc2)ccc2cccnc12` [Example 99, [4-[4-(8-methyl-7-quinolyl)phenoxy]-1-piperidyl]-morpholino-methanone], the IC50 was 100 to 999 nM.

Consider `O=C(C1CC1)N1CCC(Oc2ccc(-c3cnc4ccccc4c3)cc2)CC1` [Example 100, Cyclopropyl-[4-(4-quinolin-3-yl-phenoxy)-piperidin-1-yl]-methanone,HCl], for which the IC50 lay in the range of 1 to 99 nM.

For `O=C(C1CCC1)N1CCC(Oc2ccc(-c3cnc4ccccc4c3)cc2)CC1` [Example 101, Cyclobutyl-[4-(4-quinolin-3-yl-phenoxy)-piperidin-1-yl]-methanone,HCl], the IC50 is 1 to 99 nM.

In the case of `O=C(C1CCCC1)N1CCC(Oc2ccc(-c3cnc4ccccc4c3)cc2)CC1` [Example 102, Cyclopentyl-[4-(4-quinolin-3-yl-phenoxy)-piperidin-1-yl]-methanone, 2HCl], the IC50 lay in the range of 100 to 999 nM.

For the compound `O=C([C@H]1CCCO1)N1CCC(Oc2ccc(-c3cnc4ccccc4c3)cc2)CC1` [Example 103, [4-(4-Quinolin-3-yl-phenoxy)-piperidin-1-yl]-(R)-tetrahydrofuran-2-yl-methanone, HCl], the IC50 fell in the range of 1 to 99 nM.

Turning to `O=C([C@@H]1CCCO1)N1CCC(Oc2ccc(-c3cnc4ccccc4c3)cc2)CC1` [Example 104, [4-(4-Quinolin-3-yl-phenoxy)-piperidin-1-yl]-(S)-tetrahydrofuran-2-yl-methanone, HCl], the IC50 lay in the range of 1 to 99 nM.

With `COCC(=O)N1CCC(Oc2ccc(-c3cnc4ccccc4c3)cc2)CC1` [Example 105], the IC50 lay in the range of 1 to 99 nM.

On to `O=C(C1CCCCO1)N1CCC(Oc2ccc(-c3cnc4ccccc4c3)cc2)CC1` (stereo not shown) [Example 106, [4-(4-Quinolin-3-yl-phenoxy)-piperidin-1-yl]-(tetrahydropyran-2-yl)-methanone, 2HCl], for which the IC50 was 100 to 999 nM.

On to `O=C(C1CCOC1)N1CCC(Oc2ccc(-c3cnc4ccccc4c3)cc2)CC1` (stereo not shown) [Example 107, [4-(4-Quinolin-3-yl-phenoxyl)-piperidin-1-yl]-(tetrahydrofuran-3-yl)-methanone, 2HCl], for which the IC50 was in the range of 1000 to 10000 nM.

In the case of `CO[C@H](C)C(=O)N1CCC(Oc2ccc(-c3cnc4ccccc4c3)cc2)CC1` [Example 108, (R)-2-Methoxy-1-[4-(4-quinolin-3-yl-phenoxy)-piperidin-1-yl]-propan-1-one, 2HCl], the IC50 lay within 100 to 999 nM.

Consider `CO[C@@H](C)C(=O)N1CCC(Oc2ccc(-c3cnc4ccccc4c3)cc2)CC1` [Example 109, (S)-2-Methoxy-1-[4-(4-quinolin-3-yl-phenoxy)-piperidin-1-yl]-propan-1-one, 2HCl], for which the IC50 is 1000 to 10000 nM.

`O=C(CO)N1CCC(Oc2ccc(-c3cnc4ccccc4c3)cc2)CC1` [Example 110, 2-Hydroxy-1-[4-(4-quinolin-3-yl-phenoxy)-piperidin-1-yl]-ethanone, 2HCl]: the IC50 lay within 1000 to 10000 nM.

As to `O=C(c1ccco1)N1CCC(Oc2ccc(-c3cnc4ccccc4c3)cc2)CC1` [Example 111, HCl], the IC50 lay within 1000 to 10000 nM.

As to `CC(=O)N1CCC(Oc2ccc(-c3cnc4ccccc4c3)cc2)CC1` [Example 112, 1-[4-(4-Quinolin-3-yl-phenoxy)-piperidin-1-yl]-ethanone, HCl], the IC50 lay within 100 to 999 nM.

With `CC(C)C(=O)N1CCC(Oc2ccc(-c3cnc4ccccc4c3)cc2)CC1` [Example 113, 2-Methyl-1-[4-(4-quinolin-3-yl-phenoxy)-piperidin-1-yl]-propan-1-one, HCl], the IC50 was in the range of 100 to 999 nM.

Consider `CC(C)(C)C(=O)N1CCC(Oc2ccc(-c3cnc4ccccc4c3)cc2)CC1` [Example 114, 2,2-Dimethyl-1-[4-(4-quinolin-3-yl-phenoxy)-piperidin-1-yl]-propan-1-one, HCl], for which the IC50 lay within 100 to 999 nM.

For the compound `CC1(C(=O)N2CCC(Oc3ccc(-c4cnc5ccccc5c4)cc3)CC2)CCCO1` (stereo not shown) [Example 115, (2-Methyltetrahydrofuran-2-yl)-[4-(4-quinolin-3-yl-phenoxy)-piperidin-1-yl]-methanone, HCl], the IC50 is 100 to 999 nM.

Consider `CC1(C(=O)N2CCC(Oc3ccc(-c4cnc5ccccc5c4)cc3)CC2)OCCO1` [Example 116, (2-Methyl-1,3-dioxolan-2-yl)-[4-(4-quinolin-3-yl-phenoxy)-piperidin-1-yl]-methanone, HCl], for which the IC50 lay in the range of 1 to 99 nM.

Turning to `CS(=O)(=O)CC(=O)N1CCC(Oc2ccc(-c3cnc4ccccc4c3)cc2)CC1` [Example 117, 2-Methanesulfonyl-1-[4-(4-quinolin-3-yl-phenoxy)-piperidin-1-yl]-ethanone, HCl], the IC50 lay in the range of 1000 to 10000 nM.

Regarding `O=C(C1CCCS1(=O)=O)N1CCC(Oc2ccc(-c3cnc4ccccc4c3)cc2)CC1` (stereo not shown) [Example 118, (1,1-Dioxidotetrahydrothiophen-2-yl)(4-(4-(quinolin-3-yl)phenoxy)piperidin-1-yl)methanone, HCl], the IC50 is 1000 to 10000 nM.

In the case of `O=C(C1CC(F)(F)C1)N1CCC(Oc2ccc(-c3cnc4ccccc4c3)cc2)CC1` [Example 119, (3,3-Difluorocyclobutyl)-[4-(4-quinolin-3-yl-phenoxy)-piperidin-1-yl]-methanone], the IC50 fell in the range of 1000 to 10000 nM.

For the compound `O=C1CC[C@H](C(=O)N2CCC(Oc3ccc(-c4cnc5ccccc5c4)cc3)CC2)O1` [Example 120, (R)-5-[4-(4-Quinolin-3-yl-phenoxy)-piperidine-1-carbonyl]-dihydrofuran-2-one, HCl], the IC50 was in the range of 1 to 99 nM.

`Cc1ccoc1C(=O)N1CCC(Oc2ccc(-c3cnc4ccccc4c3)cc2)CC1` [Example 121, (3-Methylfuran-2-yl)-[4-(4-quinolin-3-yl-phenoxy)-piperidin-1-yl]-methanone, HCl]: the IC50 is 1000 to 10000 nM.
